Source: EP0685467A1, “NOVEL PYRIMIDINE DERIVATIVE AND MEDICINAL COMPOSITION” (NKK CORPORATION, priority 1993, dated 1995)

Tests used:
[1] = tested on: ICR male mice; experiment: Toxicity Example: intraperitoneal administration to mice; assay type: in vivo; conditions: intraperitoneally, 500 mg/kg, 4- to 5-week-old ICR male mice
Procedure: The compounds of Examples 3, 19, 20, or 23 were intraperitoneally administered to 4- to 5-week-old ICR male mice in an amount of 500 mg/kg.

[2] = tested on: rat aorta; experiment: Inhibitory activity of vasoconstriction: angiotensin II induced constriction of rat aorta rings (Magnus apparatus); assay type: cell-based; conditions: constriction induced by 3 x 10⁻⁸ angiotensin II
Procedure: The applicability of the compound of the present invention was confirmed by the function to inhibit constriction of rat aorta induced by angiotensin II.
Stetharteries of Wistar male rats having body weights of 150 to 250 g (Japan Charles River Inc.) were excised. After the attached connective tissue was removed, the cavities of the veins were rubbed by yarn to remove the endothelial cells and prepare ring samples. The samples were suspended in a 5ml organ bath which was filled with Krebs-Henseleit solution (unit mM; NaCl = 118, KCl = 4.7, CaCl₂ = 2.55, MgSO₄ = 1.18, KH₂PO₄ = 1.18, NaHCO₃ = 24.88, glucose = 11.1) and held at 37°C and bubbled with 95% O₂-5% CO₂. After an initial tension of 1.5 g was applied and preincubation was carried out for 60 minutes, the compounds to be tested (3 x 10⁻⁸ or 1 x 10⁻⁸) were administered. After 15 minutes, 3 x 10⁻⁸ angiotensin II was accumulatively added and the reaction of constriction was measured. The rate of inhibition was evaluated by comparing the reaction of constriction, which had been previously measured, in the case of administration of 3 x 10⁻⁸ angiotensin II in the absence of the compounds to be tested.
The constriction of the samples was ionotropicaly measured using an isometric transducer (UL-10GR: Minebea) and amplifier (6M92: NEC SANEI) and recorded by a recticorder (RECTI-HORIZ-8K: NEC SANEI).

[3] = tested on: ICR male and female mice; experiment: Toxicity Example: oral administration to mice; assay type: in vivo; conditions: orally, 1000 mg/kg, 6-week-old ICR male and female mice
Procedure: The compounds of Examples 15, 19, or 47 were orally administered to 6-week-old ICR male and female mice in an amount of 1000 mg/kg.

| SMILES | deaths [1] | Rate of inhibition (%) ([2]; compound 1 x 10⁻⁸ M) | Rate of inhibition (%) ([2]; compound 3 x 10⁻⁸ M) | deaths [3] |
| --- | --- | --- | --- | --- |
| CCCc1nc(C)c(Cc2cccc(CO)c2)c(=O)n1Cc1ccc(-c2ccccc2-c2nnn[nH]2)cc1 [Example 19, 5-(3-hydroxymethylbenzyl)-6-methyl-2-propyl-3-[2'-(1H-tetrazol-5-yl)biphenyl-4-yl]methylpyrimidin-4-one] | No deaths were observed | 100% | 100% | No deaths were observed |
| CCc1nc(C)c(Cc2cccc(CO)c2)c(OCc2ccc(-c3ccccc3-c3nnn[nH]3)cc2)n1 [Example 15, 2-ethyl-5-(3-hydroxymethylbenzyl)-6-methyl-4-[2'-(1H-tetrazol-5-yl)biphenyl-4-yl]methoxypyrimidine] |  |  |  | No deaths were observed |
| CCCCc1nc(C)cc(=O)n1Cc1ccc(-c2ccccc2-c2nnn[nH]2)cc1 [Comparative compound A, 2-butyl-6-methyl-3-[2'-(1H-tetrazol-5-yl)biphenyl-4-yl]methylpyrimidin-4-one, reference compound] |  | 8% | 37% |  |
| CCCCc1nc(C)c(Cc2cccc(CO)c2)c(=O)n1Cc1ccc(-c2ccccc2-c2nnn[nH]2)cc1 [Example 23, 2-butyl-5-(3-hydroxymethylbenzyl)-6-methyl-3-[2'-(1H-tetrazol-5-yl)biphenyl-4-yl]methylpyrimidin-4-one] | No deaths were observed | 95% | 100% |  |
| CCCc1nc(C)c(Cc2ccc(COC)cc2)c(=O)n1Cc1ccc(-c2ccccc2-c2nnn[nH]2)cc1 [Example 4, 5-(4-methoxymethylbenzyl)-6-methyl-2-propyl-3-[2'-(1H-tetrazol-5-yl)biphenyl-4-yl]methylpyrimidin-4-one] |  | 36% | 94% |  |
| CCc1nc(C)nc(OCc2ccc(-c3ccccc3-c3nnn[nH]3)cc2)c1Cc1cccc(CO)c1 [Example 47, 6-ethyl-5-(3-hydroxymethylbenzyl)-2-methyl-4-[2'-(1H-tetrazol-5-yl)biphenyl-4-yl]methoxypyrimidine] |  |  |  | No deaths were observed |
| CCCc1nc(C)c(Cc2ccc(CO)cc2)c(=O)n1Cc1ccc(-c2ccccc2-c2nnn[nH]2)cc1 [Example 3, 5-(4-hydroxymethylbenzyl)-6-methyl-2-propyl-3-[2'-(1H-tetrazol-5-yl)biphenyl-4-yl]methylpyrimidin-4-one] | No deaths were observed | 78% | 98% |  |
| CCCCc1nc(C)c(Cc2ccccc2)c(=O)n1Cc1ccc(-c2ccccc2-c2nnn[nH]2)cc1 [Comparative compound B, 5-benzyl-2-butyl-6-methyl-3-[2'-(1H-tetrazol-5-yl)biphenyl-4-yl]methylpyrimidin-4-one, reference compound] |  | 5% | 32% |  |
| CCCc1nc(C)c(Cc2cccc(COC)c2)c(=O)n1Cc1ccc(-c2ccccc2-c2nnn[nH]2)cc1 [Example 20, 5-(3-methoxymethylbenzyl)-6-methyl-2-propyl-3-[2'-(1H-tetrazol-5-yl)biphenyl-4-yl]methylpyrimidin-4-one] | No deaths were observed | 100% | 100% |  |
